Measurements published in patent publication EP0745595A1, “3-(3-Aryloxyphenyl)-1-(substituted methyl)-s-triazine-2,4,6-oxo or thiotrione herbicidal agents” (American Cyanamid Company, priority 1995, dated 1996).

Tests used:
Format in all cases: in vivo
[1] = test system: CYPERUS SEROTINUS, ROTTB.; test: Preemergence weed control under flooded paddy conditions, CYPSE (Flatsedge); details: preemergence, 3-4 weeks after treatment
Summary of the method: (§1)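 Seeds or propagules sown in top 0.5 cm of silt loam in undrained containers, flooded 1.5 to 3 cm throughout. Compounds in aqueous/acetone 50/50 v/v pipetted into flood water at about 0.5, 0.25, 0.125 and 0.063 kg/ha. Visual 0-9 rating versus control after three to four weeks in greenhouse.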

[2] = test system: ORYZA SATIVA, L. TEBONNET; test: Preemergence herbicidal evaluation, ORYSAT (Rice, Tebonnet); details: rated four to five weeks after treatment
Text: Results of herbicide evaluation are expressed on a rating scale (0-9). The scale is based upon a visual observation of plant stand, vigor, malformation, size, chlorosis and overall plant appearance as compared with a control.
The preemergence herbicidal activity of the test compounds of the present invention is exemplified by the following tests in which the seeds of a variety of monocotyledonous and dicotyledonous plants are separately mixed with potting soil and planted on top of approximately one inch of soil in separate pint cups. […] The treated cups are then placed on greenhouse benches, watered and cared for in accordance with conventional greenhouse procedures. From four to five weeks after treatment, the tests are terminated and each cup is examined and rated according to the rating system provided in Example 40.
The compounds evaluated are reported by compound number given in Example 40.

[3] = test system: CHENOPODIUM ALBUM, L.; test: Postemergence herbicidal evaluation, CHEAL (Lambsquarters, Common)
Summary of the method: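 Seedlings of common lambsquarters (Chenopodium album) were raised in jiffy flats for roughly two weeks, then sprayed postemergence through a nozzle at 40 psi with test compound dispersed in 50/50 acetone/water containing 0.5% TWEEN®20 surfactant. Plants were kept on greenhouse benches under standard care and rated visually on a 0-9 scale versus controls.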

[4] = test system: […], PRESL.; test: Preemergence weed control under flooded paddy conditions, MOOVA (Monochoria); details: preemergence, 3-4 weeks after treatment
Summary of the method: as §1

[5] = test system: CHENOPODIUM ALBUM, L.; test: Preemergence herbicidal evaluation, CHEAL (Lambsquarters, Common); details: rated four to five weeks after treatment
Summary of the method: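 Seeds sown in potting soil cups, then sprayed preemergence with aqueous acetone compound solution at about 0.125 to 0.50 kg per hectare. Greenhouse-grown, rated 4–5 weeks after treatment on a 0–9 visual scale against control.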

[6] = test system: SAGITTARIA PYGMAEA, L.; test: Preemergence weed control under flooded paddy conditions, SAGPY (Arrowhead (Pygmaea)); details: preemergence, 3-4 weeks after treatment
Summary of the method: as §1

[7] = test system: ORYZA SATIVA, L. TEBONNET; test: Rice tolerance to post-transplant applications under flooded paddy conditions, ORYSAT (Rice, Tebonnet); details: post-transplant rice, 3-4 weeks after treatment
Summary of the method: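 Two ten-day-old Tebonnet rice seedlings were transplanted into silt loam and kept flooded 1.5 to 3 cm deep. Three days after transplanting, the flood surface received the compound in aqueous/acetone 50/50 v/v at about 0.5, 0.25, 0.125 or 0.063 kg/ha. Injury was rated visually on a 0-9 scale versus control after 3-4 weeks.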

Structure (SMILES): COC(=O)Cn1c(=O)n(C)c(=O)n(-c2cc(Oc3cc(Cl)c(Cl)cc3Cl)ccc2[N+](=O)[O-])c1=O [Compound 31, Methyl tetrahydro-3-methyl-5-[2-nitro-5-(2,4,5-trichlorophenoxy)phenyl]-2,4,6-trioxo-s-triazine-1(2H)-acetate]
- Herbicidal effect rating, CYPSE ([1]; 0.063 kg/ha): 0.0
- Herbicidal effect rating, CYPSE ([1]; 0.125 kg/ha): 0.0
- Herbicidal effect rating, CYPSE ([1]; 0.250 kg/ha): 0.0
- Herbicidal effect rating, CYPSE ([1]; 0.500 kg/ha): 0.0
- ORYSAT herbicidal rating ([2]; Rate 0.125 kg/ha): 3.0
- ORYSAT herbicidal rating ([2]; Rate 0.250 kg/ha): 3.0
- ORYSAT herbicidal rating ([2]; Rate 0.500 kg/ha): 3.0
- CHEAL rating ([3]; Rate 0.125 kg/ha): 7.0
- CHEAL rating ([3]; Rate 0.250 kg/ha): 7.0
- CHEAL rating ([3]; Rate 0.500 kg/ha): 7.0
- Herbicidal effect rating, MOOVA ([4]; 0.063 kg/ha): 0.0
- Herbicidal effect rating, MOOVA ([4]; 0.125 kg/ha): 0.0
- CHEAL herbicidal rating ([5]; Rate 0.125 kg/ha): 9.0
- CHEAL herbicidal rating ([5]; Rate 0.250 kg/ha): 9.0
- CHEAL herbicidal rating ([5]; Rate 0.500 kg/ha): 9.0
- Herbicidal effect rating, SAGPY ([6]; 0.063 kg/ha): 0.0
- Herbicidal effect rating, SAGPY ([6]; 0.125 kg/ha): 0.0
- Herbicidal effect rating, SAGPY ([6]; 0.250 kg/ha): 0.0
- Herbicidal effect rating, SAGPY ([6]; 0.500 kg/ha): 0.0
- Herbicidal effect rating, ORYSAT ([7]; 0.063 kg/ha): 0.0
- Herbicidal effect rating, ORYSAT ([7]; 0.125 kg/ha): 0.0
- Herbicidal effect rating, ORYSAT ([7]; 0.250 kg/ha): 1.0
- Herbicidal effect rating, ORYSAT ([7]; 0.500 kg/ha): 2.0
